Conditions: Liquid, Buoyancy - hydrostatic balance with magnetic suspension - one sinker

C [methane]
Conditions	mass density [kg/m3]
105 K, 185.5 kPa	432.098
105 K, 478.95 kPa	432.339
105 K, 973.88 kPa	432.743
105 K, 1970.8 kPa	433.554
105 K, 5044.6 kPa	435.981
115 K, 479.33 kPa	417.827
115 K, 973.28 kPa	418.319
115 K, 1970 kPa	419.298
125 K, 477.88 kPa	402.38
125 K, 972.71 kPa	402.99
125 K, 1970.4 kPa	404.194
125 K, 5112.4 kPa	407.803
135 K, 783.75 kPa	386.1
135 K, 1001.2 kPa	386.441
135 K, 2014.3 kPa	387.992
135 K, 5208.9 kPa	392.557

Reference: the NIST ThermoML archive (doi:10.1016/j.jct.2015.09.034)
